Reference: EP4763837A1, “PHOTOCHROMIC COMPOUND, CURABLE COMPOSITION, OPTICAL ARTICLE, LENS, AND EYEGLASSES” (TOKUYAMA CORPORATION, priority 2023, dated 2025)
Where “and” joins values, the source holds several entries; their conditions need not be identical. Identical values can stand only once.

Assays:
[1] = Photochromic property of photochromic laminate made by coating method; type: physicochemical; settings: for Residual ratio / Color developing density at 23°C: laminate by coating method; for Residual ratio: A96/A0 x 100 after 96 hours accelerated degradation, xenon weather meter X25; for Color developing density at 23°C: absorbance difference after 240 seconds irradiation at the maximum absorption wavelength of the same line
Source text: First, the photochromic compound obtained in Example 1, a photoinitiator, and a polymerizable compound were mixed to obtain a curable composition.
The polymerizable compound was a combination of the following radical polymerizable monomers:
Polyethylene glycol dimethacrylate (average molecular weight: 736): 42 parts by mass • Polyethylene glycol dimethacrylate (average molecular weight: 536): 12 parts by mass • Trimethylolpropane methacrylate: 38 parts by mass γ-Methacryloyloxypropyltrimethoxysilane: 2 parts by mass Glycidyl methacrylate: 1 part by mass.
Note that, in the curable composition, the photochromic compound was added in an amount of 0.25 mmol taking a total amount of the radical polymerizable monomers as 100 g.
Phenylbis(2,4,6-trimethylbenzoyl)phosphine oxide (photoinitiator: Omnirad 819): 0.3 parts by mass Ethylene bis(oxyethylene) bis[3-(5-tert-butyl-4-hydroxy-m-tolyl) propionate] (stabilizer, Irganox 245): 1 part by mass Bis(1,2,2,6,6-pentamethyl-4-piperidyl)sebacate: 3 parts by mass Leveling agent (L-7001) manufactured by DuPont Toray Specialty Materials K.K.: 0.1 parts by mass.
Using this curable composition, a photochromic laminate was obtained by a lamination method including polymerization as follows.
First, a thiourethane plastic lens with a center thickness of 2 mm and a refractive index of 1.60 was prepared as an optical substrate. Note that, the thiourethane plastic lens had been alkaline-etched in a 10% sodium hydroxide aqueous solution at 50°C for 5 minutes in advance, and then thoroughly washed with distilled water.
A spin coater (1H-DX2, manufactured by MIKASA CO., LTD) was used to coat a surface of the above-mentioned plastic lens with a moisture-curing primer (product name: TR-SC-P, manufactured by Tokuyama Corporation) at a rotation speed of 70 rpm for 15 seconds, followed by 1000 rpm for 10 seconds. Then, about 2 g of the photochromic curable composition obtained above was spin-coated at a rotation speed of 60 rpm for 40 seconds, followed by 600 rpm for 10 to 20 seconds so as to achieve a photochromic coating layer with a thickness of 40 µm.
The lens of which surface had been coated with the photochromic curable composition (photochromic coating layer) was irradiated with light for 90 seconds in a nitrogen gas atmosphere using a metal halide lamp with an output of 200 mW/cm^2 to cure the coating. The resultant was then further heated at 110°C for 1 hour to produce a photochromic laminate with a photochromic layer.
Photochromic laminates were produced using the photochromic compounds obtained in Examples 2 to 20 in the same manner as in Example 21.
Photochromic laminates were obtained using photochromic compounds represented by Formulae (A) to (D) below in the same manner as in Example 21. [drawing 89] [drawing 90] [drawing 91] [drawing 92] [drawing 93]
The resulting photochromic laminates were evaluated by the below-mentioned methods. • (1) Photochromic property • [1] Maximum absorption wavelength (λmax): This is the maximum absorption wavelength after color development determined by a spectrophotometer manufactured by Otsuka Electronics Co., Ltd. (instantaneous multichannel photo detector MCPD3000) and was used as an index of a color tone upon color development. • [2] Color developing density at 23°C (A23): This is a difference between an absorbance {ε(240)} after irradiation with light at 23°C for 240 seconds and an absorbance ε(0) when not irradiated with light at the maximum absorption wavelength and was used as an index of a color developing density. The higher this value is, the better a photochromic property is. • [3] Color fading half-life at 23°C [τ1/2 (sec).)]: This is a period of time taken by an absorbance at the maximum absorption wavelength of a sample to decrease to 1/2 of {ε(240)-ε(0)} when irradiation is stopped after irradiation with light at 23°C for 240 seconds, and was used as an index of a color fading rate. The shorter this period of time is, the faster the color fading rate is. • [4] […]

[2] = Solubility of photochromic compound in polymerizable compounds; type: physicochemical; design: key: 1: No haze is seen when checked under transmission of light, and the sample is completely dissolved.; 2: A very thin haze is seen to the extent that it can be seen under transmission of light.; 3: A thin haze that can be seen under transmission of light is seen.; 4: A haze can be seen even without transmission of light; settings: 35 µmol/g in radical polymerizable compound composition of Example 21, 65 to 70°C; for Dissolution for 15 min / Dissolution for 30 min / Dissolution for 45 min: stirring and ultrasonic irradiation; for Dissolution for 1 hour: head reads 60 min in Tables 8 to 14
Description: The photochromic compounds according to Examples and Comparative examples shown in Table 5 were evaluated for solubility in polymerizable compounds.
Specifically, a sample was prepared by adding each of the photochromic compounds to the composition, which consisted of a radical polymerizable compound, among the curable compositions used in Example 21.
Note that, this test was performed using "YOKAI-KUN USS-1" manufactured by NIHONSEIKI KAISHA LTD. under the following conditions: • Dissolution temperature: 65 to 70°C • Stirring condition: Stirring dial of 5. Ultrasonic irradiation condition: Irradiation interval of 3 sec.
Dissolution was checked every 15 minutes up to 1 hour later, the sample was visually checked by transmitting light through the sample, and a degree of dissolution was evaluated according to the following four evaluation criteria.
• 1: No haze is seen when checked under transmission of light, and the sample is completely dissolved. • 2: A very thin haze is seen to the extent that it can be seen under transmission of light. • 3: A thin haze that can be seen under transmission of light is seen. • 4: A haze can be seen even without transmission of light.
A shorter time required for the evaluation result to be 1 means higher solubility.

Structure (SMILES)	Color fading half-life at 23°C [1]	Residual ratio [1]	Color developing density at 23°C [1]	Dissolution for 15 min [2]	Dissolution for 30 min [2]	Dissolution for 45 min [2]	Dissolution for 1 hour [2]
CCCC1(CC)c2cc(Sc3c(C)cccc3C)ccc2-c2c1c1c(c3cc(OC)ccc23)OC(c2ccc(OC)cc2)(c2ccc(N(C)c3ccccc3)cc2)C=C1 (stereo not shown) [Formula (88-1)]	0.717 min	68%	–	–	–	–	–
CCC1(OCCOCCO[Si](C)(C)CC[Si](O[Si](C)(C)C)(O[Si](C)(C)C)O[Si](C)(C)C)c2ccccc2-c2c1c1c(c3cc(OC)c(N4CCOCC4)cc23)OC(c2ccc(OC)cc2)(c2ccc(OC)cc2)C=C1 (stereo not shown) [Formula (C), reference compound]	–	34% and 36%	1.27 - and 0.70 -	2	1	1	1
CCCOc1ccc(C2(c3ccc(OC)cc3)C=Cc3c4c(c5cc(OC)c(OC)cc5c3O2)-c2ccc(Sc3cccc(C(F)(F)F)c3)cc2C4(CC)CCC)cc1 (stereo not shown) [Formula (72-3)]	–	57%	–	–	–	–	–
CCCC1(C)c2ccccc2-c2c1c1c(c3cc(OC)c(-c4c(OC)cc(OC)cc4OC)cc23)OC(c2ccc(OC)cc2)(c2ccc(N(c3ccccc3)c3ccccc3)cc2)C=C1 (stereo not shown) [Formula (89-1)]	–	–	–	4	2	1	1
CCC1(CC)c2ccccc2-c2c1c1c(c3cc(OC)c(N(C)c4ccccc4)cc23)OC(c2ccc(OC)cc2)(c2ccc(OC)cc2)C=C1 [Formula (F), reference compound]	–	–	–	4	3	3	2
COc1ccc(C2(c3ccc(N4CCOCC4)cc3)C=Cc3c4c(c5cc(Sc6c(C)cccc6C)c(OC)cc5c3O2)-c2ccc(OC)cc2C4(C)C)cc1 (stereo not shown) [Formula (K), reference compound]	–	–	–	4	4	3	3
CCCC1(CC)c2cc(C)ccc2-c2c1c1c(c3cc(OC)c(-c4ccc(N5CCOCC5)cc4)cc23)OC(c2ccc(C)cc2)(c2ccc(N(C)c3ccccc3)cc2)C=C1 (stereo not shown) [Formula (84-1)]	2 min	62%	–	–	–	–	–
COc1ccc(C2(c3ccc(OC)cc3)C=Cc3c4c(c5ccc(OC)cc5c3O2)-c2ccc(OC(F)(F)F)cc2C4(C)C)cc1 [Formula (H), reference compound]	–	–	–	4	3	3	2
CCCCCCC1(CCCC)c2cc(OC)ccc2-c2c1c1c(c3cc(OC)c(Sc4c(C)cccc4C)cc23)OC(c2ccc(OC)cc2)(c2ccc(N3CCOCC3)cc2)C=C1 (stereo not shown) [Formula (85-1)]	–	–	–	3	2	1	1
CCCCC1(CC)c2cc(N(C)c3ccccc3)ccc2-c2c1c1c(c3cc(OC)c(OC)cc23)OC(c2ccc(OC)cc2)(c2ccc(OCCC)cc2)C=C1 (stereo not shown) [Formula (82-1)]	–	–	–	3	2	1	1

Continued, values first:

Color fading half-life at 23°C [1]	Residual ratio [1]	Color developing density at 23°C [1]	Dissolution for 15 min [2]	Dissolution for 30 min [2]	Dissolution for 45 min [2]	Dissolution for 1 hour [2]	Structure (SMILES)
–	59%	1.29 -	–	–	–	–	CCCCCC1(CCCC)c2ccccc2-c2c1c1c(c3cc(OC)c(N4CCCc5ccccc54)cc23)OC(c2ccc(OC)cc2)(c2ccc(OCCC)cc2)C=C1 (stereo not shown) [Formula (16-1)]
1.67 min	–	–	–	–	–	–	CCCCC1(CC)c2ccccc2-c2c1c1c(c3cc(OC)c(-c4ccccc4N4CCOCC4)cc23)OC(c2ccc(OC)cc2)(c2ccc(OC)cc2)C=C1 (stereo not shown) [Formula (81-2)]
–	58%	–	–	–	–	–	CCCOc1ccc(C2(c3ccc(N(C)c4ccccc4)cc3)C=Cc3c4c(c5cc(-c6ccc(OC)cc6OC)c(OC)cc5c3O2)-c2ccccc2C4(C)CC)cc1F (stereo not shown) [Formula (86-1)]
1.53 min	74%	1.25 -	–	–	–	–	CCCC1(CC)c2ccccc2-c2c1c1c(c3cc(OC)c(N(C)c4ccccc4)cc23)OC(c2ccc(OC)cc2)(c2ccc(N(c3ccccc3)c3ccccc3)cc2)C=C1 (stereo not shown) [Formula (83-2)]
–	–	–	4	3	3	2	COc1ccc(C2(c3ccc(N4CCOCC4)cc3)C=Cc3c4c(c5cc(-c6ccc(N7CCOCC7)cc6)c(OC)cc5c3O2)-c2ccc(C)cc2C4(C)C)cc1 (stereo not shown) [Formula (G), reference compound]
–	–	–	4	3	3	2	COc1ccc(C2(c3ccc(N4CCOCC4)cc3)C=Cc3c4c(c5ccc(OC)cc5c3O2)-c2ccc(OC)cc2C42CC(C)(C)CC(C)(C)C2)cc1 (stereo not shown) [Formula (E), reference compound]
2.33 min	64%	–	–	–	–	–	CCCOc1ccc(C2(c3ccc(OC)cc3)C=Cc3c4c(c5cc(C)c(OC)cc5c3O2)-c2ccc(N3CCOc5ccccc53)cc2C4(C)CC)cc1 (stereo not shown) [Formula (75-2)]
1.17 min	68%	–	–	–	–	–	CCCCC1(CC)c2ccccc2-c2c1c1c(c3cc(OC)c(-c4ccc(N(c5ccccc5)c5ccccc5)cc4)cc23)OC(c2ccc(N(C)c3ccccc3)cc2)(c2ccc(OCCC)c(F)c2)C=C1 (stereo not shown) [Formula (76-6)]
–	–	–	4	3	2	1	COc1ccc(C2(c3ccc(N(c4ccccc4)c4ccccc4)cc3)C=Cc3c4c(c5cc(-c6c(OC)cc(OC)cc6OC)c(OC)cc5c3O2)-c2ccccc2C4(C)C)cc1 (stereo not shown) [Formula (L), reference compound]
–	–	–	3	1	1	1	CCC(C)C1(CC)c2cc(OC)ccc2-c2c1c1c(c3cc(OC)ccc23)OC(c2ccc(OC)cc2)(c2ccc(N3CCOCC3)cc2)C=C1 (stereo not shown) [Formula (3-2)]
–	–	–	4	3	3	2	CCC1(CC)CCC2(CC1)c1cc(OC)ccc1-c1c2c2c(c3cc(OC)c(Sc4c(C)cccc4C)cc13)OC(c1ccc(OC)cc1)(c1ccc(N3CCOCC3)cc1)C=C2 (stereo not shown) [Formula (J), reference compound]
–	–	–	4	4	3	3	CCCOc1ccc(C2(c3ccc(OC)cc3)C=Cc3c4c(c5cc(OC)c(OC)cc5c3O2)-c2ccc(N(C)c3ccccc3)cc2C4(C)C)cc1 (stereo not shown) [Formula (I), reference compound]
